In article PMC6917776, “Discovery of a chemical probe for PRDM9” (Nature Communications, 2019):
Where two headings read alike, the source gives them in different places.

Columns and labels:
Assay in all cases: Methyltransferase selectivity assay (SPA)
Format in all cases: biochemical
MLL3 pentameric complex = biological target: T1, MLL3 pentameric complex (Homo sapiens, UniProt Q8NEZ4)
T1 construct: purchased Structural Genomics Consortium (SGC Toronto) in-house methyltransferase panel
Description: (§1) Selectivity against methyltransferases were determined as described previously. Details of the assays are described in the supplementary methods.
(§2) Methyltransferase selectivity assay1
(§3) The effect of chemical probes and negative controls on the methyltransferase activities of protein, DNA and RNA methyltransferases was tested by radiometric assays using 3H-SAM. For proteins such as MLL1 trimeric, MLL3 pentameric, EZH1 (PRC2) pentameric, and EZH2 (PRC2) trimeric complexes, as well as G9a, GLP, SUV39H1, SUV39H2, SUV420H1, SUV420H2, SETD2, SETD8, SETDB1, SETD7, PRMT1, PRMT3, PRMT4, PRMT5/ MEP50 complex, PRMT6, PRMT7, PRMT8, PRMT9, PRDM9, SMYD2, SMYD3, DNMT1, and BCDIN3D the incorporation of a tritium-labeled methyl group into biotinylated substrate was monitored using scintillation proximity assay (SPA). Briefly, a 10 µL reaction containing 3H-SAM and substrate at concentrations close to the apparent Km values for each enzyme (balanced conditions) was prepared. The reactions were quenched with 10 µL of 7.5 M guanidine hydrochloride; 180 µL of 20 mM Tris buffer (pH 8.0) were added, and the mixture was transferred to a 96-well FlashPlate and incubated for 1 h. The counts per minute (CPM) was measured on a TopCount plate reader. The CPM in the absence of compound or enzyme was defined as 100% activity and background (0%), respectively, for each dataset. […]

PRMT4 = biological target: T2, PRMT4 (Homo sapiens, UniProt Q86X55)
T2 construct: purchased Structural Genomics Consortium (SGC Toronto) in-house methyltransferase panel
T2 sequence (Q86X55 1-608): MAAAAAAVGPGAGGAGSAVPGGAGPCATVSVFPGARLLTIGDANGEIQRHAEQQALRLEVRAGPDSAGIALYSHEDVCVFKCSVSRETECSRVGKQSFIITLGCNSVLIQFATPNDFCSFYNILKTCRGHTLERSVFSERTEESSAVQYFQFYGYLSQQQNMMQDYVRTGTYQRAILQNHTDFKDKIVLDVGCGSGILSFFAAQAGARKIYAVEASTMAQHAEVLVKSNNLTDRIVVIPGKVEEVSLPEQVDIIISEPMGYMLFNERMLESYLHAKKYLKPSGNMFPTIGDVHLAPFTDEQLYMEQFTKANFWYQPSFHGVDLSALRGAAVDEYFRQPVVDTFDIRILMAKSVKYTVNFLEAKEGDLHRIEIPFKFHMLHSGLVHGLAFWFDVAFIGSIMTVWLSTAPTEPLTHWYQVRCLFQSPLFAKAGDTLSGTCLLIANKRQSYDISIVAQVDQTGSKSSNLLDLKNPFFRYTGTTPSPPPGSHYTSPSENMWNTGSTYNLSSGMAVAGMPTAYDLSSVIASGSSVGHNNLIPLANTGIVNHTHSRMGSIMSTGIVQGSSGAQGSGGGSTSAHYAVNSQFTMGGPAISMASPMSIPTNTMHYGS
Description: as §1, §2, §3

SETD8 = biological target: T3, SETD8 (Homo sapiens, UniProt Q9NQR1)
T3 construct: purchased Structural Genomics Consortium (SGC Toronto) in-house methyltransferase panel
T3 sequence (Q9NQR1 1-393): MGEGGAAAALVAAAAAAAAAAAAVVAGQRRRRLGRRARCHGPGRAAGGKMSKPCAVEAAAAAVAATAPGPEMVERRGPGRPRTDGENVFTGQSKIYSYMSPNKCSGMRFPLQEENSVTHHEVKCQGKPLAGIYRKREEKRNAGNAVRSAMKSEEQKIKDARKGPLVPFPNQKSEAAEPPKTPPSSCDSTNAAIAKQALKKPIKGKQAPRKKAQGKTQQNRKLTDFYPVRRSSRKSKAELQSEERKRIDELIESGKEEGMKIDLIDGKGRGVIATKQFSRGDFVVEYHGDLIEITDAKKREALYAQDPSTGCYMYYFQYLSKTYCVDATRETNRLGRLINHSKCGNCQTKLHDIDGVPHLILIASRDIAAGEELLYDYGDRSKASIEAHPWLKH
Description: as §1, §2, §3

PRMT7 = biological target: T4, PRMT7 (Homo sapiens, UniProt Q9NVM4)
T4 construct: purchased Structural Genomics Consortium (SGC Toronto) in-house methyltransferase panel
T4 sequence (Q9NVM4 1-692): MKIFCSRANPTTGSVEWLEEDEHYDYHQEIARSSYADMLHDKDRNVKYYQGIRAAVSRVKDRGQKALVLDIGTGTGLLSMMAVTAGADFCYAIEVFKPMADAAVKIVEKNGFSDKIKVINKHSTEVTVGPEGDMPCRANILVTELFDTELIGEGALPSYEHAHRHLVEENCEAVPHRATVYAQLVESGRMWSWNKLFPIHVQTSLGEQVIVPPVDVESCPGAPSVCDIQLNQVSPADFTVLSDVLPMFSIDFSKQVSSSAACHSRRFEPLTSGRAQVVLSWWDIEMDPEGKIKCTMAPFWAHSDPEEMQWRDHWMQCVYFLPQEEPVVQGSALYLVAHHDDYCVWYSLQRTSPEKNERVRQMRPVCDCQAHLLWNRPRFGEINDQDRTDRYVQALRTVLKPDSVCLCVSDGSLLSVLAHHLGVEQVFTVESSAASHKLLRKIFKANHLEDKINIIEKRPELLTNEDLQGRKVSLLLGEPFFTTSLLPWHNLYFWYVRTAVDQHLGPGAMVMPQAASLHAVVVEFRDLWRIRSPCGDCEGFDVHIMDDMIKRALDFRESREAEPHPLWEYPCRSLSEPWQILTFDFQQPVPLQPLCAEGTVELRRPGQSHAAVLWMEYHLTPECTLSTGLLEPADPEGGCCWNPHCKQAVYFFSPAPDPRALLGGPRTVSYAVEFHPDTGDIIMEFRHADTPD
Description: as §1, §2, §3

PRMT3 = biological target: T5, PRMT3 (Homo sapiens, UniProt O60678)
T5 construct: purchased Structural Genomics Consortium (SGC Toronto) in-house methyltransferase panel
Description: as §1, §2, §3

PRMT1 = biological target: T6, PRMT1 (Homo sapiens, UniProt Q99873)
T6 construct: purchased Structural Genomics Consortium (SGC Toronto) in-house methyltransferase panel
Description: as §1, §2, §3

SETD2 = biological target: T7, SETD2 (Homo sapiens, UniProt Q9BYW2)
T7 construct: purchased Structural Genomics Consortium (SGC Toronto) in-house methyltransferase panel
Description: as §1, §2, §3

[1] = 1µM compound, Exp1, Exp2, read-out: Activity %
[2] = 10µM compound, Exp1, Exp2, 10 µM
[3] = 10µM compound, Exp1, Exp2, read-out: Activity %

T7 sequence (Q9BYW2 whole entry): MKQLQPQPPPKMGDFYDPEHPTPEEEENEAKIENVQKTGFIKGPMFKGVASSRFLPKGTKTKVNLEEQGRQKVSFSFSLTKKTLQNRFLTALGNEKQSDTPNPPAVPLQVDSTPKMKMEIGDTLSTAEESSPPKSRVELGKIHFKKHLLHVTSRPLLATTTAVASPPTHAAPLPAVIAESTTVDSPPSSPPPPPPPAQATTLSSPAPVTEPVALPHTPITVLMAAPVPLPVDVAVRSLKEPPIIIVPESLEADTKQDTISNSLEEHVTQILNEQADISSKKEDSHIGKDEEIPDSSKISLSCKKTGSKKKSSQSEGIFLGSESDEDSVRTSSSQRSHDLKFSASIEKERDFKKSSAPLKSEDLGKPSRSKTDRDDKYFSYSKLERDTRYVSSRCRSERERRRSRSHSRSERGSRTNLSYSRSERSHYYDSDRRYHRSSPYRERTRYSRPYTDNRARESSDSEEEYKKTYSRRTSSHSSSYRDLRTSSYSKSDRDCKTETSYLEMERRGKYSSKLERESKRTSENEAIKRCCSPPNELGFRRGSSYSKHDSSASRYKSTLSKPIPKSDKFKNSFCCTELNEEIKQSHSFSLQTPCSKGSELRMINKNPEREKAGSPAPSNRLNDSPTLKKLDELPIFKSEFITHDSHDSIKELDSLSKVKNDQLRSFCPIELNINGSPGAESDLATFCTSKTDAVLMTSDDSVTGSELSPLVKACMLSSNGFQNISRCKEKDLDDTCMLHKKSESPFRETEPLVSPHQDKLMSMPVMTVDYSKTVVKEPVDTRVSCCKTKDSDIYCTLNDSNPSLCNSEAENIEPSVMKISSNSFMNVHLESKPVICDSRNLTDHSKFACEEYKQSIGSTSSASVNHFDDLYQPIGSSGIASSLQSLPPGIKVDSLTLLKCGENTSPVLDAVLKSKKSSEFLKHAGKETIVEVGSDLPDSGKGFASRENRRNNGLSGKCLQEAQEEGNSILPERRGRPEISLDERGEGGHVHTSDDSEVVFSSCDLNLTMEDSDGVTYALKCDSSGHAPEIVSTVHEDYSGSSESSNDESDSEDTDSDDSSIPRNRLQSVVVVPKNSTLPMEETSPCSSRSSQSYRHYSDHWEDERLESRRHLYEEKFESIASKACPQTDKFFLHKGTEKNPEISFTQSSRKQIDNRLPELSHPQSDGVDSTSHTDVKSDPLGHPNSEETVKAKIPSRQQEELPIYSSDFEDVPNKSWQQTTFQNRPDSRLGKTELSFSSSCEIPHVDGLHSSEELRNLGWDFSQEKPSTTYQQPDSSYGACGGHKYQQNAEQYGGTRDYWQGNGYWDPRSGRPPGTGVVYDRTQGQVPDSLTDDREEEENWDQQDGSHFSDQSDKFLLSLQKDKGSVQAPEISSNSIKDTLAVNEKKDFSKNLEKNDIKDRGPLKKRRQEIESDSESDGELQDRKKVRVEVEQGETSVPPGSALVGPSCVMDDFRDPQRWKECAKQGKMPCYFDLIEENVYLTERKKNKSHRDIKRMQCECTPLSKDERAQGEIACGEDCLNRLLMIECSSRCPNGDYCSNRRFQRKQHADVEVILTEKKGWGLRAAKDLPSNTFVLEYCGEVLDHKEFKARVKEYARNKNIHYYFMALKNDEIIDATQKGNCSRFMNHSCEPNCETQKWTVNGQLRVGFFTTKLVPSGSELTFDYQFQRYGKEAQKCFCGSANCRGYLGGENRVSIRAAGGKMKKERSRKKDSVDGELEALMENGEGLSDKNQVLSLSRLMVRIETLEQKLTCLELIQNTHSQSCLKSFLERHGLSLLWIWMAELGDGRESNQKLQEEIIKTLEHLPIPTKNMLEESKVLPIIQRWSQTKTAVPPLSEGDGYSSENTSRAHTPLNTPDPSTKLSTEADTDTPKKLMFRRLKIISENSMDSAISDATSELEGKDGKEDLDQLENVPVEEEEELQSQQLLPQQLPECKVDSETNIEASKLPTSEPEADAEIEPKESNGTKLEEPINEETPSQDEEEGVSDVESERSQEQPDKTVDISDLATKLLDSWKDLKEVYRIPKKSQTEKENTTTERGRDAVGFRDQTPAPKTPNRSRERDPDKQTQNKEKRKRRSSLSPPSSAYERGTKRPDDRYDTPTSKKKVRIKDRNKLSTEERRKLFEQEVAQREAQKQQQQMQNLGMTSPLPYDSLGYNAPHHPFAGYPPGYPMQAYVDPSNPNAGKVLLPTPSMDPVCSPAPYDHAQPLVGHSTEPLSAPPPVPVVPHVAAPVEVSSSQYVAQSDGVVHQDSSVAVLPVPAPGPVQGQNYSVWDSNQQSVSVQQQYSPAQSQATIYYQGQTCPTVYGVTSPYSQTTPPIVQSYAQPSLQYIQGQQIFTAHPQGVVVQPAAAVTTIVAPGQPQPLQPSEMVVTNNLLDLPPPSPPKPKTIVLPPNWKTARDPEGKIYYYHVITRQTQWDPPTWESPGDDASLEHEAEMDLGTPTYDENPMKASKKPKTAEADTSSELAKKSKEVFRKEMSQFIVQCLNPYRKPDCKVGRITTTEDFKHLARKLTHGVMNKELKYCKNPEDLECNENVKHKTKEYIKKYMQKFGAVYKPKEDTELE
T5 sequence (O60678 whole entry): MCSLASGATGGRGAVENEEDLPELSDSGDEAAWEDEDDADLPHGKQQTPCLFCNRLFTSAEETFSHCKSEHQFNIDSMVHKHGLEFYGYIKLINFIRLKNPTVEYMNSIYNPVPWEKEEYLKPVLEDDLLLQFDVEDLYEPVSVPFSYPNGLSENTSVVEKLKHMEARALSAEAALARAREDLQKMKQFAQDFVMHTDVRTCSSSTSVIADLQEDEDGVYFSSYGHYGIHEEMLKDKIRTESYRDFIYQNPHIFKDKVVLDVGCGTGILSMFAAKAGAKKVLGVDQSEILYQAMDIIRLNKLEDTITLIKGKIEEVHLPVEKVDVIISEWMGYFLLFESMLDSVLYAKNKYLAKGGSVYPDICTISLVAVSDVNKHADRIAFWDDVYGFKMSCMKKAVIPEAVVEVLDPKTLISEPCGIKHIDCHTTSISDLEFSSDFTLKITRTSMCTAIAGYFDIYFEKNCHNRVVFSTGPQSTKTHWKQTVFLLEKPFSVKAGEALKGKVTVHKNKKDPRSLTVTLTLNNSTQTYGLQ
T6 sequence (Q99873 whole entry): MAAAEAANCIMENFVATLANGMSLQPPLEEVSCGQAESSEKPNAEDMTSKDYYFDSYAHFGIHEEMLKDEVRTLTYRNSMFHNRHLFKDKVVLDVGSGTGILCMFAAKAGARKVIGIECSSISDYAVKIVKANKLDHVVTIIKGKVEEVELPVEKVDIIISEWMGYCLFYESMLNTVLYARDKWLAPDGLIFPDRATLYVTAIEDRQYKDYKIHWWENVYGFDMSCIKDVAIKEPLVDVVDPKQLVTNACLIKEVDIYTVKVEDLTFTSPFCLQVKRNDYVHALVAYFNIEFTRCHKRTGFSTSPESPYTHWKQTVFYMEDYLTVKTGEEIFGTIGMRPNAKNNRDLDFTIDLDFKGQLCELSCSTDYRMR

## COc1cc(OC)cc(-c2noc(N3CCN(C)C4(CCN(c5ccnc(C)c5)CC4)C3)n2)c1 [MRK-740]
MLL3 pentameric complex; 1µM compound, Exp1, Exp2, 1 µM
  Activity %: 95%
MLL3 pentameric complex; [1]
  activity at 1 µM: 89%
MLL3 pentameric complex; [2]
  Activity %: 86%
MLL3 pentameric complex; [3]
  activity at 10 µM: 94%
PRMT4; 1µM compound, Exp1, Exp2, 1 µM
  Activity %: 98%
PRMT4; [1]
  activity at 1 µM: 101%
PRMT4; [2]
  Activity %: 99%
PRMT4; [3]
  activity at 10 µM: 96%
SETD8; [1]
  activity at 1 µM: 99%
SETD8; [3]
  activity at 10 µM: 101%
PRMT7; 1µM compound, Exp1, Exp2, 1 µM
  Activity %: 90%
PRMT7; [1]
  activity at 1 µM: 92%
PRMT7; [2]
  Activity %: 87%
PRMT7; [3]
  activity at 10 µM: 89%
PRMT3; 1µM compound, Exp1, Exp2, 1 µM
  Activity %: 88%
PRMT3; [1]
  activity at 1 µM: 90%
PRMT3; [2]
  Activity %: 87%
PRMT3; [3]
  activity at 10 µM: 92%
PRMT1; 1µM compound, Exp1, Exp2, 1 µM
  Activity %: 96%
PRMT1; [1]
  activity at 1 µM: 94%
PRMT1; [2]
  Activity %: 89%
PRMT1; [3]
  activity at 10 µM: 91%
SETD2; 1µM compound, Exp1, Exp2, 1 µM
  Activity %: 96%
SETD2; [1]
  activity at 1 µM: 97%
SETD2; [2]
  Activity %: 86%
SETD2; [3]
  activity at 10 µM: 90%

## COc1cc(OC)cc(-c2noc(N3CCN(C)C4(CCN(c5ccccc5)CC4)C3)n2)c1 [MRK-740 -NC]
MLL3 pentameric complex; 1µM compound, Exp1, Exp2
  activity at 1 µM: 108%
MLL3 pentameric complex; 1µM compound, Exp1, Exp2, 1 µM
  Activity %: 105%
MLL3 pentameric complex; 10µM compound, Exp1, Exp2
  activity at 10 µM: 107%
MLL3 pentameric complex; [2]
  Activity %: 95%
PRMT4; 1µM compound, Exp1, Exp2
  activity at 1 µM: 108%
PRMT4; 1µM compound, Exp1, Exp2, 1 µM
  Activity %: 89%
PRMT4; 10µM compound, Exp1, Exp2
  activity at 10 µM: 87%
PRMT4; [2]
  Activity %: 89%
SETD8; 1µM compound, Exp1, Exp2
  activity at 1 µM: 107%
SETD8; 1µM compound, Exp1, Exp2, 1 µM
  Activity %: 95%
SETD8; 10µM compound, Exp1, Exp2
  activity at 10 µM: 94%
SETD8; [2]
  Activity %: 92%
PRMT7; 1µM compound, Exp1, Exp2
  activity at 1 µM: 99%
PRMT7; 1µM compound, Exp1, Exp2, 1 µM
  Activity %: 92%
PRMT7; 10µM compound, Exp1, Exp2
  activity at 10 µM: 91%
PRMT7; [2]
  Activity %: 97%
PRMT3; 1µM compound, Exp1, Exp2
  activity at 1 µM: 105%
PRMT3; 1µM compound, Exp1, Exp2, 1 µM
  Activity %: 106%
PRMT3; 10µM compound, Exp1, Exp2
  activity at 10 µM: 104%
PRMT3; [2]
  Activity %: 97%
PRMT1; 1µM compound, Exp1, Exp2
  activity at 1 µM: 108%
PRMT1; 1µM compound, Exp1, Exp2, 1 µM
  Activity %: 109%
PRMT1; 10µM compound, Exp1, Exp2
  activity at 10 µM: 105%
PRMT1; [2]
  Activity %: 98%
SETD2; 1µM compound, Exp1, Exp2
  activity at 1 µM: 97%
SETD2; 1µM compound, Exp1, Exp2, 1 µM
  Activity %: 107%
SETD2; 10µM compound, Exp1, Exp2
  activity at 10 µM: 99%
SETD2; [2]
  Activity %: 98%
